Publication PMC6273373, “Elucidation of Transport Mechanism of Paeoniflorin and the Influence of Ligustilide, Senkyunolide I and Senkyunolide A on Paeoniflorin Transport through Mdck-Mdr1 Cells as Blood–Brain Barrier in Vitro Model” (Molecules, 2016)

Key:
[1] = system: MDCK-MDR1 cell monolayers; assay: Transport of PF across MDCK-MDR1 cell monolayers (BBB in vitro model), LC-MS/MS; assay type: in vitro ADME, canine
Description: (§1) Cell monolayers were pre-incubated in Hank's buffered salt solution (HBSS, pH 7.4) for 30 min at 37 °C. Transepithelial electrical resistance (TEER) values were measured across the monolayers using a Millipore Millicell ERS system equipped with chopstick electrodes (Millipore Corporation, Billerica, MA, USA). […] To measure apical (A)→basolateral (B) transporter, 0.5 mL of drug solution was added in A side and 1.5 mL of HBSS in B side. Basolateral (B)→apical (A) transporter was evaluated adding 1.5 mL of drug solution in B side and 0.5 mL of HBSS in A side. […] Each measurement was evaluated in triplicate. Cells were incubated in a 37 °C shaking incubator. […] The supernatants were transferred to autosampler vials and injected into the LC-MS system. An HPLC system consisting of a solvent-delivery system […], an autosampler SIL-30 AC, a column oven CTO-30 AC, a solvent degasser DGU-20A3 and a controller CBM-20A from […] was used in the study. Separation was conducted using a Phenomenex Kinetex NB-C18 (100 × 3.0 mm, 2.6 μm, Torrance, CA, USA). The column oven was maintained at 30 °C. The mobile phase was water as mobile phase A and acetonitrile as mobile phase B. […] The injection volume was set at 5 μL. The MS analysis was performed on a 4500 QTRAPTM system from Applied Biosystems (AB Sciex) equipped with Turbo V sources and Turbo IonsprayTM interface. Electrospray ionization was performed in negative mode. The mass spectrometric parameters were optimized as: Turbo Ion Spray (TIS) temperature, 650 °C; ion spray voltage, -4500 V; curtain gas, nitrogen, 30; nebulizing gas, 50; TIS gas, 50; declustering potential, -130 eV for PF, 0 eV for internal standard (IS, gastrodin); collision energy, -30 eV for PF, -35 eV for IS. […] Analyst SoftwareTM (version 1.6.1) was used to process the obtained data. […] The efflux ratio (ER) was calculated according to the following Equation (4): (4) […]→BL

MDCK-MDR1 monolayers = assay: Transepithelial electrical resistance (TEER) before and after permeation; assay type: cell-based, canine; details: after versus before permeation
Description: Cell monolayers were pre-incubated in Hank’s buffered salt solution (HBSS, pH 7.4) for 30 min at 37 °C. Transepithelial electrical resistance (TEER) values were measured across the monolayers using a Millipore Millicell ERS system equipped with chopstick electrodes (Millipore Corporation, Billerica, MA, USA). Approximate MDCK-MDR1 values ranged from 500 to 800 Ω·cm^2. To measure apical (A)→basolateral (B) transporter, 0.5 mL of drug solution was added in A side and 1.5 mL of HBSS in B side. Basolateral (B)→apical (A) transporter was evaluated adding 1.5 mL of drug solution in B side and 0.5 mL of HBSS in A side. […] Transepithelial electrical resistance (TEER) of the monolayers was measured with the EVOM instrument (Millipore Corporation). The TEER of untreated cells and cells treated with LIG, SENI and SENA was determined in HBSS before and after the experiment. The measured TEER before the experiment was set as 100% and all other values were calculated according to this.

P-gp [2] = assay: Western blot of P-gp expression in MDCK-MDR1 cells; assay type: cell-based, canine; details: 8 hours
Description: Cells treated with different concentrations of LIG, SENA and SENI for 8 hours were subject to Western blot assay. Proteins were extracted from whole cell lysates and separated by sodium dodecyl sulfate–polyacrylamide gel electrophoresis, then transferred to a polyvinylidene fluoride (PVDF) membrane. The following primary antibodies were used: rabbit anti-P-gp (1:1000; Abcam, Cambridge, MA, USA) and mouse anti-β-actin (1:2000; Abcam). Membranes were then incubated with the horseradish peroxidase-conjugated secondary anti-bodies (1:5000; Abcam). The transferred proteins were incubated with enhanced chemiluminescence (ECL) substrate solution and visualized with the Image J program (Bio-Rad, Richmond, CA, USA). The relative levels were quantified densitometrically by using the Quantity One software (Bio-Rad Laboratories) and calculated according to the reference bands of β-actin.

[3] = Transport of PF across MDCK-MDR1 cell monolayers (BBB in vitro model), LC-MS/MS; assay type: in vitro ADME, canine; details: dog
Description: as §1

P-gp (MDR1) = assay: as above; assay type: in vitro ADME, canine; details: dog, MDCK-MDR1, pH 7.4
Description: as §1

P-gp [4] = assay: as above; assay type: in vitro ADME, canine; details: dog, MDCK-MDR1, pH 7.4, 400 μg/mL PF + verapamil (P-gp inhibitor), mean ± SD (n = 3)
Description: as §1

[5] = enhancer 40 µg/mL with 400 µg/mL PF, versus PF alone
[6] = enhancer 80 µg/mL with 400 µg/mL PF, versus PF alone
[7] = enhancer 20 µg/mL with 400 µg/mL PF, versus PF alone

CCC/C=C1\OC(=O)C2=C1CCC=C2 [LIG, ligustilide]
Effect on A→B transport (Papp/flux) of PF [1, 5]: significantly increased | Effect on A→B transport (Papp/flux) of PF [1, 6]: significantly increased | TEER change during permeation studies (MDCK-MDR1 monolayers; 20 μg/mL with 400 μg/mL PF): significantly decreased | TEER change during permeation studies (MDCK-MDR1 monolayers; 40 μg/mL with 400 μg/mL PF): markedly decreased | TEER change during permeation studies (MDCK-MDR1 monolayers; 80 μg/mL with 400 μg/mL PF): markedly decreased | P-gp expression versus control group (P-gp [2]; 20 μg/mL): significantly down-regulated | P-gp expression versus control group (P-gp [2]; 40 μg/mL): markedly down-regulated | P-gp expression versus control group (P-gp [2]; 80 μg/mL): markedly down-regulated

C[C@@]12C[C@@]3(O)O[C@@H](O1)[C@]1(COC(=O)c4ccccc4)[C@H]3C[C@@]12O[C@@H]1O[C@H](CO)[C@@H](O)[C@H](O)[C@H]1O [PF, paeoniflorin]
Papp A→B at 150 min, 400 μg/mL ([3]; MDCK-MDR1, pH 7.4, 400 μg/mL PF + 2.5 mmol/L EDTA-Na2, mean ± SD (n = 3)): 2.74 ± 0.212 ×10⁻⁶ cm/s | Papp A→B at 150 min, 100 μg/mL ([3]; MDCK-MDR1, pH 7.4, PF 100 μg/mL, MDCK-MDR1 monolayers, mean ± SD (n = 3)): 0.697 ± 0.053 ×10⁻⁶ cm/s | Papp A→B at 150 min, 200 μg/mL ([3]; MDCK-MDR1, pH 7.4, PF 200 μg/mL, MDCK-MDR1 monolayers, mean ± SD (n = 3)): 0.691 ± 0.082 ×10⁻⁶ cm/s | Papp A→B at 150 min, 400 μg/mL ([3]; MDCK-MDR1, pH 7.4, PF 400 μg/mL, MDCK-MDR1 monolayers, mean ± SD (n = 3)): 0.587 ± 0.088 ×10⁻⁶ cm/s | Papp A→B at 150 min, 600 μg/mL ([3]; MDCK-MDR1, pH 7.4, PF 600 μg/mL, MDCK-MDR1 monolayers, mean ± SD (n = 3)): 0.666 ± 0.072 ×10⁻⁶ cm/s | Papp A→B at 150 min, 800 μg/mL ([3]; MDCK-MDR1, pH 7.4, PF 800 μg/mL, MDCK-MDR1 monolayers, mean ± SD (n = 3)): 0.705 ± 0.107 ×10⁻⁶ cm/s | Papp A→B at 150 min ([3]; MDCK-MDR1, pH 7.4, PF 100-800 μg/mL, MDCK-MDR1 cells, read-out: Papp (A→B), range over tested concentrations): 0.587 to 0.705 ×10⁻⁶ cm/s | Papp B→A at 150 min, 100 μg/mL ([3]; pH 7.4, PF 100 μg/mL, MDCK-MDR1 monolayers, mean ± SD (n = 3)): 1.55 ± 0.092 ×10⁻⁶ cm/s | Papp B→A at 150 min, 200 μg/mL ([3]; pH 7.4, PF 200 μg/mL, MDCK-MDR1 monolayers, mean ± SD (n = 3)): 1.48 ± 0.363 ×10⁻⁶ cm/s | Papp B→A at 150 min, 400 μg/mL ([3]; pH 7.4, PF 400 μg/mL, MDCK-MDR1 monolayers, mean ± SD (n = 3)): 1.3 ± 0.084 ×10⁻⁶ cm/s | Papp B→A at 150 min, 600 μg/mL ([3]; pH 7.4, PF 600 μg/mL, MDCK-MDR1 monolayers, mean ± SD (n = 3)): 1.44 ± 0.201 ×10⁻⁶ cm/s | Papp B→A at 150 min, 800 μg/mL ([3]; pH 7.4, PF 800 μg/mL, MDCK-MDR1 monolayers, mean ± SD (n = 3)): 1.42 ± 0.097 ×10⁻⁶ cm/s | Increase of Papp (A→B) of PF in comparison with the non-EDTA-Na2 added ([1]; 400 μg/mL PF with 2.5 mmol/L EDTA-Na2): about five | Increase of Papp (A→B) of PF in comparison with the non-verapamil added ([1]; 400 μg/mL PF with verapamil): about 1.2 fold | ER (B→A/A→B) ([1]; PF 600 μg/mL, MDCK-MDR1 monolayers): 2.156 | B→A/A→B permeability ER ([1]; PF, all tested concentrations, MDCK-MDR1 cells): more than 2 | efflux ratio at 150 min, 100 μg/mL (P-gp (MDR1)): 2.22 | efflux ratio at 150 min, 200 μg/mL (P-gp (MDR1)): 2.13 | efflux ratio at 150 min, 400 μg/mL (P-gp (MDR1)): 2.21 | efflux ratio at 150 min, 800 μg/mL (P-gp (MDR1)): 2.01 | Papp A→B at 150 min, 400 μg/mL (P-gp [4]): 0.707 ± 0.062 ×10⁻⁶ cm/s

CCCCC1OC(=O)C2=C1CCC=C2 (stereo not shown) [SENA, senkyunolide A]
Effect on A→B transport (Papp/flux) of PF [1, 7]: significantly increased | Effect on A→B transport (Papp/flux) of PF [1, 5]: significantly increased | Increase of the transport of PF ([1]; enhancer 80 µg/mL with 400 µg/mL PF, A→B, versus PF alone): approximately 109% | Effect on A→B transport (Papp/flux) of PF [1, 6]: significantly increased | TEER change during permeation studies (MDCK-MDR1 monolayers; 20 μg/mL with 400 μg/mL PF): markedly decreased | TEER change during permeation studies (MDCK-MDR1 monolayers; 40 μg/mL with 400 μg/mL PF): markedly decreased | TEER change during permeation studies (MDCK-MDR1 monolayers; 80 μg/mL with 400 μg/mL PF): significantly decreased | P-gp expression versus control group (P-gp [2]; 20 μg/mL): significantly down-regulated | P-gp expression versus control group (P-gp [2]; 40 μg/mL): markedly down-regulated | P-gp expression versus control group (P-gp [2]; 80 μg/mL): markedly down-regulated

CCC/C=C1\OC(=O)C2=C1CC[C@H](O)[C@H]2O [SENI, senkyunolide I]
Effect on A→B transport (Papp/flux) of PF [1, 7]: significantly increased | Effect on A→B transport (Papp/flux) of PF [1, 5]: significantly increased | Effect on A→B transport (Papp/flux) of PF [1, 6]: significantly increased | TEER change during permeation studies (MDCK-MDR1 monolayers; 80 μg/mL with 400 μg/mL PF): markedly decreased | P-gp expression versus control group (P-gp [2]; 20 μg/mL): markedly down-regulated | P-gp expression versus control group (P-gp [2]; 40 μg/mL): markedly down-regulated | P-gp expression versus control group (P-gp [2]; 80 μg/mL): markedly down-regulated
